Test results published in the kinase profiling compilation of Christmann-Franck et al. (2016).

Key:
Test in all cases: KINOMEscan competition binding
Conditions in all cases: compound 10.0 µM
ACVRL1 (human) = ACVRL1 (human) (UniProt P37023)
BMPR1A (human) = BMPR1A (human) (UniProt P36894)
BRSK2 (human) = BRSK2 (human) (UniProt Q8IWQ3)
BTK (human) = BTK (human) (UniProt Q06187)
CASK (human) = CASK (human) (UniProt O14936)
CDC42BPB (human) = CDC42BPB (human) (UniProt Q9Y5S2)
CDK3 (human) = CDK3 (human) (UniProt Q00526)
CDK7 (human) = CDK7 (human) (UniProt P50613)
CDK8 (human) = CDK8 (human) (UniProt P49336)
DDR1 (human) = DDR1 (human) (UniProt Q08345)
DYRK2 (human) = DYRK2 (human) (UniProt Q92630)
EPHA6 (human) = EPHA6 (human) (UniProt Q9UF33)
ERN1 (human) = ERN1 (human) (UniProt O75460)
FGFR3 (human) = FGFR3 (human) (UniProt P22607)
FGFR3 (human), sequence (P22607 whole entry, looked up): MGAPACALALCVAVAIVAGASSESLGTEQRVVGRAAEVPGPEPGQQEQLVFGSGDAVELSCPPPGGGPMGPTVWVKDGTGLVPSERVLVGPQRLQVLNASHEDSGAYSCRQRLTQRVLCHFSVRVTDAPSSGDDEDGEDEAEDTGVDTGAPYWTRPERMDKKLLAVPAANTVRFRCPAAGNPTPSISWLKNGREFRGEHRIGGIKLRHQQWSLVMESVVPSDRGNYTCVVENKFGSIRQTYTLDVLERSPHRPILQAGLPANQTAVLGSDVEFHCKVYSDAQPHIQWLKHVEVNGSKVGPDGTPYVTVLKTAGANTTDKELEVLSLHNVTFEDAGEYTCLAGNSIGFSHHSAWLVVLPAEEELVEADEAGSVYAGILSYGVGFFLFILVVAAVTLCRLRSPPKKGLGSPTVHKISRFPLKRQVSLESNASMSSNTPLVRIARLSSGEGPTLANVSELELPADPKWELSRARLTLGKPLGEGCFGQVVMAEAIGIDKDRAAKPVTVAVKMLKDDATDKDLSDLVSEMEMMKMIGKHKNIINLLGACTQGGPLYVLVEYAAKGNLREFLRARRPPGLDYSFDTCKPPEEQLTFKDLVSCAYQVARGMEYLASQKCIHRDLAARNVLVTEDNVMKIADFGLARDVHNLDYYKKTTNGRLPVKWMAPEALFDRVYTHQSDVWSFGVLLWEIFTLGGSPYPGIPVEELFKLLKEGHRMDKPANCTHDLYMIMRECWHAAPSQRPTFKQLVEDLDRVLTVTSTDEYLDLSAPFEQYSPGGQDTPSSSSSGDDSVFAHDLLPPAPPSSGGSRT

FYN (human) = FYN (human) (UniProt P06241)
FYN (human), sequence (P06241 whole entry, looked up): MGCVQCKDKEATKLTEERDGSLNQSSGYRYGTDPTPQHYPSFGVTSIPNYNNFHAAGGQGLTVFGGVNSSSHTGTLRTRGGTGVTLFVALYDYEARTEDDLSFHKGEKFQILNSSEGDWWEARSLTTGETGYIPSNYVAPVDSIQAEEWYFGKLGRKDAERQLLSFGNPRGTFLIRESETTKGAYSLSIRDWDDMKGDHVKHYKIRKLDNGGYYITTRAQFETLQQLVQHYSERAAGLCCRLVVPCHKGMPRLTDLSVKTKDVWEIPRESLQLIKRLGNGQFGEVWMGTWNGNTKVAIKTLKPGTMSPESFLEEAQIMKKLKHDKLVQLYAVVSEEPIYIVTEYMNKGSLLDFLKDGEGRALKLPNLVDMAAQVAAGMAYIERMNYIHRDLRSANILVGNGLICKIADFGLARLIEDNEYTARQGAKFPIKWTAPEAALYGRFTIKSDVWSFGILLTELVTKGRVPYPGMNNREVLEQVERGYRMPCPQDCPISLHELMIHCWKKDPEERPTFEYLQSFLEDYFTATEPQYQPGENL

GAK (human) = GAK (human) (UniProt O14976)
HIPK1 (human) = HIPK1 (human) (UniProt Q86Z02)
ITK (human) = ITK (human) (UniProt Q08881)
KIT (human) = KIT (human) (UniProt P10721)
LTK (human) = LTK (human) (UniProt P29376)
LYN (human) = LYN (human) (UniProt P07948)
MAP4K3 (human) = MAP4K3 (human) (UniProt Q8IVH8)
MAPK9 (human) = MAPK9 (human) (UniProt P45984)
MAPKAPK2 (human) = MAPKAPK2 (human) (UniProt P49137)
MARK2 (human) = MARK2 (human) (UniProt Q7KZI7)
MET (human) = MET (human) (UniProt P08581)
MKNK1 (human) = MKNK1 (human) (UniProt Q9BUB5)
MKNK1 (human), sequence (Q9BUB5 whole entry, looked up): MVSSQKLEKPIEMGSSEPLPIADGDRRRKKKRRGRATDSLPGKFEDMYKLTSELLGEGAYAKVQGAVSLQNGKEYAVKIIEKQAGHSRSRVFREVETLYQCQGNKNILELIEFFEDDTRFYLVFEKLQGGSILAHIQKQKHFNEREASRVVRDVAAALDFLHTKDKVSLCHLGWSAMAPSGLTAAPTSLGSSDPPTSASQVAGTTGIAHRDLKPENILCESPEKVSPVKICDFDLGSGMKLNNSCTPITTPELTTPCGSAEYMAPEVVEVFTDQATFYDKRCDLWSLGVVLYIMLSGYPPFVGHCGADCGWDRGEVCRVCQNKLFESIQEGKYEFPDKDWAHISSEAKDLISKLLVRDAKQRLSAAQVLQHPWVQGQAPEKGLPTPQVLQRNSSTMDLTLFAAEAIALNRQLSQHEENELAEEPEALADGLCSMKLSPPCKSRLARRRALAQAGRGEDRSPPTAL

NEK7 (human) = NEK7 (human) (UniProt Q8TDX7)
NEK7 (human), sequence (Q8TDX7 whole entry, looked up): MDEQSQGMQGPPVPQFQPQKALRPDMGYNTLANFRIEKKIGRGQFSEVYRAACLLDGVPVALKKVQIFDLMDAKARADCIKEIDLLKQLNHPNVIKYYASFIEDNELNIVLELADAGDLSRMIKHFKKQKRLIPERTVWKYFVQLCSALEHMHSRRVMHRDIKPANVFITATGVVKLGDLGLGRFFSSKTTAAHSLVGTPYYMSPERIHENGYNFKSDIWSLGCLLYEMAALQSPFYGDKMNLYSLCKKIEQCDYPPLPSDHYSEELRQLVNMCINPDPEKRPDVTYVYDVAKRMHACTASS

NLK (human) = NLK (human) (UniProt Q9UBE8)
NUAK2 (human) = NUAK2 (human) (UniProt Q9H093)
PIM1 (human) = PIM1 (human) (UniProt P11309)
PIP4K2B (human) = PIP4K2B (human) (UniProt P78356)
PRKACA (human) = PRKACA (human) (UniProt P17612)
PRPF4B (human) = PRPF4B (human) (UniProt Q13523)
PRPF4B (human), sequence (Q13523 whole entry, looked up): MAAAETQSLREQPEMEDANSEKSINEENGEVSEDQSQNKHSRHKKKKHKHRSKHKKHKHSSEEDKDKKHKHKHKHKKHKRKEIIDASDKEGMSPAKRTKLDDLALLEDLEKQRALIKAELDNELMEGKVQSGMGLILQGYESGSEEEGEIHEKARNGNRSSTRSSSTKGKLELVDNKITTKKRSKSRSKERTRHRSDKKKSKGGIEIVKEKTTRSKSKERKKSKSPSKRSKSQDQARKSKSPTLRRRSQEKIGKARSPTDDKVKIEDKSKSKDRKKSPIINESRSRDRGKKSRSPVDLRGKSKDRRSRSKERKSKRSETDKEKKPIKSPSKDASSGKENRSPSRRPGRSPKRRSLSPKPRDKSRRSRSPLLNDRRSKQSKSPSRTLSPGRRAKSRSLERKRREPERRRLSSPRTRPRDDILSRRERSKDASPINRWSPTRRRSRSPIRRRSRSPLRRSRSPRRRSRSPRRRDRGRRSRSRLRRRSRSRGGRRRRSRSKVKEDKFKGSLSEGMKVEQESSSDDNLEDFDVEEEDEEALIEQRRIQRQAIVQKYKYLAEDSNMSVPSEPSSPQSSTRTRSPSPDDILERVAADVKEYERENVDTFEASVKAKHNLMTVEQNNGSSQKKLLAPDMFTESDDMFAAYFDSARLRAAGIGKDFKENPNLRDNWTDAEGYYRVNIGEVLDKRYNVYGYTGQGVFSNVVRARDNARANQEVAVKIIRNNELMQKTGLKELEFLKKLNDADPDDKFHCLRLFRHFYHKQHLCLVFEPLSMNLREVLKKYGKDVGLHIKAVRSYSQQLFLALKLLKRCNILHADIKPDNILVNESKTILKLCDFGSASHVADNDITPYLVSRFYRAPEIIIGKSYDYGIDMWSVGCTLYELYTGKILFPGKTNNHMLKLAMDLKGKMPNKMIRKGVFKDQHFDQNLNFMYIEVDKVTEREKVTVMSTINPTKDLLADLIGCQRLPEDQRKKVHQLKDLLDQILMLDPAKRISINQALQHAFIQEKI

RIOK3 (human) = RIOK3 (human) (UniProt O14730)
RIOK3 (human), sequence (O14730 whole entry, looked up): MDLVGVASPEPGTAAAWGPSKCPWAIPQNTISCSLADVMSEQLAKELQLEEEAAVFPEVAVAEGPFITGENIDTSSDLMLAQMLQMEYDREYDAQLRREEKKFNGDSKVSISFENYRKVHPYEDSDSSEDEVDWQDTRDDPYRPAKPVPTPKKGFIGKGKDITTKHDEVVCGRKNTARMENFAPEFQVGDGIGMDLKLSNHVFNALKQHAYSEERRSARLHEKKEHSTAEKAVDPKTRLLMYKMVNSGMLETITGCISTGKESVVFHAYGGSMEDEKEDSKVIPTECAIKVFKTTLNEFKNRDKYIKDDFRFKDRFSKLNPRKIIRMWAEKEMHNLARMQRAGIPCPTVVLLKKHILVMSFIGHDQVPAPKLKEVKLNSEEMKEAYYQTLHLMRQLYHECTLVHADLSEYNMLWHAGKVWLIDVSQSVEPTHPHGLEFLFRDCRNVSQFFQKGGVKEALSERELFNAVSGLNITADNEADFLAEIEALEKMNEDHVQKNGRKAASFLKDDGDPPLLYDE

RPS6KA1 KD1 (human) = RPS6KA1 KD1 (human) (UniProt Q15418)
RPS6KB1 (human) = RPS6KB1 (human) (UniProt P23443)
[1] = molecular target: TYK2 JH2 pseudokinase (human) (UniProt P29597)
TYK2 JH2 pseudokinase (human), sequence (P29597 whole entry, looked up): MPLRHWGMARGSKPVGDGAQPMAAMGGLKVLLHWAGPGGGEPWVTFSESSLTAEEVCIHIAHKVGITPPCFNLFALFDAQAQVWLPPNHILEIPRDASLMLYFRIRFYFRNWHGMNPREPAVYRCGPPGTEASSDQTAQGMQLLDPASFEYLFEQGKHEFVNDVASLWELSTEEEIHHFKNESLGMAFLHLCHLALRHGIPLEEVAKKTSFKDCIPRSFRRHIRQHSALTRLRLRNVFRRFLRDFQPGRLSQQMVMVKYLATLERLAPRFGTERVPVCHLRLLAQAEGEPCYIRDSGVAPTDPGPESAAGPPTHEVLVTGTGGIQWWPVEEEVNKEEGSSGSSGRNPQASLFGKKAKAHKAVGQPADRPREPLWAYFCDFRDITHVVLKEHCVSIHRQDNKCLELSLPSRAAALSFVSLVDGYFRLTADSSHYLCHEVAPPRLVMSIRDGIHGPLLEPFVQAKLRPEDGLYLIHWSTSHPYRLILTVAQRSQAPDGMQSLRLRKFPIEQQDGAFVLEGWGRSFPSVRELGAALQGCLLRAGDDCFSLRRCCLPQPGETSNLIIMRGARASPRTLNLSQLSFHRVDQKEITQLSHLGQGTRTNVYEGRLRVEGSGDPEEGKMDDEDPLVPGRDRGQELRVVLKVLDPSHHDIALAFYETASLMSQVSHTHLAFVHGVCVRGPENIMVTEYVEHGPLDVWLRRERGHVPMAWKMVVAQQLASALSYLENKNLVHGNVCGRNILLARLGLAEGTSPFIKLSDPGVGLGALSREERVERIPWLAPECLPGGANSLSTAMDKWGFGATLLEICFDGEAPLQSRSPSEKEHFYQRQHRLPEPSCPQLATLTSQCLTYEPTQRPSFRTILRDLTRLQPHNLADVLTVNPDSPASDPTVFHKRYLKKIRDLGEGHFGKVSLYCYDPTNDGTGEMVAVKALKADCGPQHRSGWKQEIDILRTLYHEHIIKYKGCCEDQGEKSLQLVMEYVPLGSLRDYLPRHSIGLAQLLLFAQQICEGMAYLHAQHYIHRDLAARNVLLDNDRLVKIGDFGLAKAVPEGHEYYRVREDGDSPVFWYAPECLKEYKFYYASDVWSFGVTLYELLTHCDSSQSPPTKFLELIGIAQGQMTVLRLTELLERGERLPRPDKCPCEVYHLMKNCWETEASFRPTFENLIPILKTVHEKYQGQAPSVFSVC

ULK3 (human) = ULK3 (human) (UniProt Q6PHR2)

Question: Which kinase still bound, per cent of control (ACVRL1 (human)) does the source give for `N#C/C(=C1/Nc2ccccc2S1)c1ccnc(NCCc2cccnc2)n1` here?
Answer: The kinase still bound, per cent of control was 100%.

Question: What about the kinase still bound, per cent of control (BMPR1A (human)) of the same compound?
Answer: The kinase still bound, per cent of control was 98%.

Question: What about the kinase still bound, per cent of control (BRSK2 (human)) of the same compound?
Answer: The kinase still bound, per cent of control was 100%.

Question: What about the kinase still bound, per cent of control (BTK (human)) of the same compound?
Answer: The kinase still bound, per cent of control was 77%.

Question: What about the kinase still bound, per cent of control (CASK (human)) of the same compound?
Answer: The kinase still bound, per cent of control was 100%.

Question: And the kinase still bound, per cent of control (CDC42BPB (human))?
Answer: The kinase still bound, per cent of control was 81%.

Question: And the kinase still bound, per cent of control (CDK3 (human))?
Answer: The kinase still bound, per cent of control was 100%.

Question: And the kinase still bound, per cent of control (CDK7 (human))?
Answer: Its kinase still bound, per cent of control is 16%.

Question: And the kinase still bound, per cent of control (CDK8 (human))?
Answer: The kinase still bound, per cent of control was 100%.

Question: And the kinase still bound, per cent of control (DDR1 (human))?
Answer: Its kinase still bound, per cent of control is 100%.

Question: And the kinase still bound, per cent of control (DYRK2 (human))?
Answer: The kinase still bound, per cent of control was 0.7%.

Question: What about the kinase still bound, per cent of control (EPHA6 (human)) of the same compound?
Answer: Its kinase still bound, per cent of control is 99%.

Question: And the kinase still bound, per cent of control (ERN1 (human))?
Answer: The kinase still bound, per cent of control was 79%.

Question: What about the kinase still bound, per cent of control (FGFR3 (human)) of the same compound?
Answer: The kinase still bound, per cent of control was 92%.

Question: And the kinase still bound, per cent of control (FYN (human))?
Answer: The kinase still bound, per cent of control was 100%.

Question: What about the kinase still bound, per cent of control (GAK (human)) of the same compound?
Answer: Its kinase still bound, per cent of control is 4.6%.

Question: And the kinase still bound, per cent of control (HIPK1 (human))?
Answer: The kinase still bound, per cent of control was 1.2%.

Question: And the kinase still bound, per cent of control (ITK (human))?
Answer: Its kinase still bound, per cent of control is 100%.

Question: And the kinase still bound, per cent of control (KIT (human))?
Answer: Its kinase still bound, per cent of control is 31%.

Question: What about the kinase still bound, per cent of control (LTK (human)) of the same compound?
Answer: Its kinase still bound, per cent of control is 100%.

Question: And the kinase still bound, per cent of control (LYN (human))?
Answer: Its kinase still bound, per cent of control is 100%.

Question: And the kinase still bound, per cent of control (MAP4K3 (human))?
Answer: Its kinase still bound, per cent of control is 80%.

Question: What about the kinase still bound, per cent of control (MAPK9 (human)) of the same compound?
Answer: Its kinase still bound, per cent of control is 0.25%.

Question: And the kinase still bound, per cent of control (MAPKAPK2 (human))?
Answer: Its kinase still bound, per cent of control is 100%.

Question: And the kinase still bound, per cent of control (MARK2 (human))?
Answer: The kinase still bound, per cent of control was 75%.

Question: And the kinase still bound, per cent of control (MET (human))?
Answer: Its kinase still bound, per cent of control is 98%.

Question: What about the kinase still bound, per cent of control (MKNK1 (human)) of the same compound?
Answer: Its kinase still bound, per cent of control is 97%.

Question: What about the kinase still bound, per cent of control (NEK7 (human)) of the same compound?
Answer: Its kinase still bound, per cent of control is 84%.

Question: And the kinase still bound, per cent of control (NLK (human))?
Answer: The kinase still bound, per cent of control was 100%.

Question: And the kinase still bound, per cent of control (NUAK2 (human))?
Answer: The kinase still bound, per cent of control was 100%.

Question: What about the kinase still bound, per cent of control (PIM1 (human)) of the same compound?
Answer: The kinase still bound, per cent of control was 4.4%.

Question: And the kinase still bound, per cent of control (PIP4K2B (human))?
Answer: The kinase still bound, per cent of control was 26%.

Question: And the kinase still bound, per cent of control (PRKACA (human))?
Answer: Its kinase still bound, per cent of control is 100%.

Question: And the kinase still bound, per cent of control (PRPF4B (human))?
Answer: Its kinase still bound, per cent of control is 79%.

Question: And the kinase still bound, per cent of control (RIOK3 (human))?
Answer: The kinase still bound, per cent of control was 33%.

Question: What about the kinase still bound, per cent of control (RPS6KA1 KD1 (human)) of the same compound?
Answer: Its kinase still bound, per cent of control is 83%.

Question: And the kinase still bound, per cent of control (RPS6KB1 (human))?
Answer: The kinase still bound, per cent of control was 41%.

Question: And the kinase still bound, per cent of control [1]?
Answer: Its kinase still bound, per cent of control is 1.4%.

Question: What about the kinase still bound, per cent of control (ULK3 (human)) of the same compound?
Answer: The kinase still bound, per cent of control was 12%.
